Test: recombinant UMI read abundance after kanamycin selection (control-corrected) (log10(CPM+1)); higher = more efficient recombination; extreme values may be limits of the assay; sequences stand for … in AGTGCAGAGAAAATCGGCCAGTTTTCTCTGCCTGCAGTCCGCATGCCGTGGGACCCCTTGGGTTCTAACCTGTTGCCTAGATTTATGCAGCGGACTGCCTTTCTCCCAAAGTGATAAACCGG…AGGTTGGTTTCACT; site = the 11-nt donor
Outline: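 Values are reported as log10(CPM+1), obtained by converting sequencing counts to CPM, averaging replicates and scaling by control-derived factors. The counts came from recombinant UMIs amplified by PCR across the donor–target junction. These UMIs came from a pooled Escherichia coli screen of donor and donor-binding-loop pairs for the IS621 bridge recombinase, plated with IPTG (0.07 mM) plus kanamycin or left unselected, in two replicates each.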
In the case of “AGAAAGTCATGGACCGGTTTTCCCGGTAATCCGTATTTGCT (site AGAAAGACTAG)”, the “recombinant UMI read abundance (log10)” value is reported as 0. With “TGGCCTGCATGGACCGGTTTTCCCGGTAATCCGTATTTGGC (site TGGCCAGCTGC)” the “recombinant UMI read abundance (log10)” value was 0. With “CGGGAGTCATGGACCGGTTTTCCCGGTAATCCGTATTTGCG (site CGGGAGTCTAG)” the “recombinant UMI read abundance (log10)” value was 1.03. In the case of “AGATCGACATGGACCGGTTTTCCCGGTAATCCGTATTTGTT (site AGATCGACTAA)”, the “recombinant UMI read abundance (log10)” value is reported as 0.688. With “GGGGCACCATGGACCGGTTTTCCCGGTAATCCGTATTTGCA (site GGGGCACCTCG)” the “recombinant UMI read abundance (log10)” value was 0.0103. For “CACCGTACATGGACCGGTTTTCCCGGTAATCCGTATTTGCT (site CCCCGTACTAG)”, the “recombinant UMI read abundance (log10)” value was 0.363. In the case of “TGTTCCCCATGGACCGGTTTTCCCGGTAATCCGTATTTGTA (site TCTTCCCCTTA)”, the “recombinant UMI read abundance (log10)” value is reported as 0.0139. For “ACACATCCATGGACCGGTTTTCCCGGTAATCCGTATTTGAC (site ACACATCCTGT)”, the “recombinant UMI read abundance (log10)” value was 1.22. For “CAATGGCCATGGACCGGTTTTCCCGGTAATCCGTATTTGCG (site CAATGGCCTCG)”, the “recombinant UMI read abundance (log10)” value was 0.00456. With “GGCAAACCATGGACCGGTTTTCCCGGTAATCCGTATTTGGT (site GACAAACCTAC)” the “recombinant UMI read abundance (log10)” value was 0. For “GCTACGGCATGGACCGGTTTTCCCGGTAATCCGTATTTGCC (site GCTACCGCTGG)”, the “recombinant UMI read abundance (log10)” value was 0. In the case of “AGGTAGACATGGACCGGTTTTCCCGGTAATCCGTATTTGCA (site AGGTAGACTTG)”, the “recombinant UMI read abundance (log10)” value is reported as 2.88. With “CGAGGACCATGGACCGGTTTTCCCGGTAATCCGTATTTGAA (site CGAGGACCTTT)” the “recombinant UMI read abundance (log10)” value was 0.0106. In the case of “TCGCCGGCATGGACCGGTTTTCCCGGTAATCCGTATTTGGC (site TGGCCGGCTGC)”, the “recombinant UMI read abundance (log10)” value is reported as 0. In the case of “TAGCTAGCATGGACCGGTTTTCCCGGTAATCCGTATTTGCA (site TAGCTAGCTTG)”, the “recombinant UMI read abundance (log10)” value is reported as 1.01. In the case of “CTAGTATCATGGACCGGTTTTCCCGGTAATCCGTATTTGAA (site CTAGTATCTCT)”, the “recombinant UMI read abundance (log10)” value is reported as 2.4. With “AATGTGGCATGGACCGGTTTTCCCGGTAATCCGTATTTGAC (site AATGTGGCTGT)” the “recombinant UMI read abundance (log10)” value was 1.81. With “TAGTATACATGGACCGGTTTTCCCGGTAATCCGTATTTGCA (site TAGTATACTTG)” the “recombinant UMI read abundance (log10)” value was 2.25. For “CGGTTGCCATGGACCGGTTTTCCCGGTAATCCGTATTTGGC (site CGGTTGCCTGC)”, the “recombinant UMI read abundance (log10)” value was 0. In the case of “GCTAATGCATGGACCGGTTTTCCCGGTAATCCGTATTTGCC (site GCTAATGCTGG)”, the “recombinant UMI read abundance (log10)” value is reported as 0. With “CATCTTGCATGGACCGGTTTTCCCGGTAATCCGTATTTGGT (site CATCTTGCTAC)” the “recombinant UMI read abundance (log10)” value was 0.825. With “CCCGGTCCATGGACCGGTTTTCCCGGTAATCCGTATTTGAA (site CCCGGTCCTTG)” the “recombinant UMI read abundance (log10)” value was 0. With “GACAATCCATGGACCGGTTTTCCCGGTAATCCGTATTTGGT (site GACAACCCTAC)” the “recombinant UMI read abundance (log10)” value was 0.00483. In the case of “GTGGAAACATGGACCGGTTTTCCCGGTAATCCGTATTTGCA (site TTGGAAACTTG)”, the “recombinant UMI read abundance (log10)” value is reported as 2.14. With “CATTGCACATGGACCGGTTTTCCCGGTAATCCGTATTTGTA (site CATTGCACTTA)” the “recombinant UMI read abundance (log10)” value was 0.726. With “ACCAAGACATGGACCGGTTTTCCCGGTAATCCGTATTTGGG (site ACCCAGACTCC)” the “recombinant UMI read abundance (log10)” value was 0.0318. In the case of “GGATAGACATGGACCGGTTTTCCCGGTAATCCGTATTTGCC (site GGGTAGACTGG)”, the “recombinant UMI read abundance (log10)” value is reported as 0.24. In the case of “ACATTATCATGGACCGGTTTTCCCGGTAATCCGTATTTGCA (site ACAGTATCTTG)”, the “recombinant UMI read abundance (log10)” value is reported as 1.69. With “GGATAGTCATGGACCGGTTTTCCCGGTAATCCGTATTTGCT (site GGATAGTCTAG)” the “recombinant UMI read abundance (log10)” value was 3.17. In the case of “TAGTATACATGGACCGGTTTTCCCGGTAATCCGTATTTGCA (site TAGAATACTTG)”, the “recombinant UMI read abundance (log10)” value is reported as 1.23. For “TGCTCGGCATGGACCGGTTTTCCCGGTAATCCGTATTTGGT (site TGCTTGGCTAC)”, the “recombinant UMI read abundance (log10)” value was 0.00594. In the case of “TAGGAATCATGGACCGGTTTTCCCGGTAATCCGTATTTGCT (site TAGGAATCTGG)”, the “recombinant UMI read abundance (log10)” value is reported as 2.28. For “ATGTAGGCATGGACCGGTTTTCCCGGTAATCCGTATTTGGC (site CTGTAGGCTGC)”, the “recombinant UMI read abundance (log10)” value was 0.572. For “GTTGTTCCATGGACCGGTTTTCCCGGTAATCCGTATTTGGA (site GTTGTTCCTGC)”, the “recombinant UMI read abundance (log10)” value was 0. For “CGCCACACATGGACCGGTTTTCCCGGTAATCCGTATTTGTA (site CACCACACTTA)”, the “recombinant UMI read abundance (log10)” value was 0.727. In the case of “CCAGGTGCATGGACCGGTTTTCCCGGTAATCCGTATTTGCT (site CCAGGTGCTAA)”, the “recombinant UMI read abundance (log10)” value is reported as 0.208. For “CGCGGTACATGGACCGGTTTTCCCGGTAATCCGTATTTGCT (site CGCTGTACTAG)”, the “recombinant UMI read abundance (log10)” value was 0.467. With “CTGGTACCATGGACCGGTTTTCCCGGTAATCCGTATTTGCT (site CTGCTACCTAG)” the “recombinant UMI read abundance (log10)” value was 0. In the case of “GTGTTACCATGGACCGGTTTTCCCGGTAATCCGTATTTGGT (site GTGTTACCTAC)”, the “recombinant UMI read abundance (log10)” value is reported as 0. In the case of “TAAAGTCCATGGACCGGTTTTCCCGGTAATCCGTATTTGTT (site TAAAGTCCTCA)”, the “recombinant UMI read abundance (log10)” value is reported as 0.0132. With “TCATGGTCATGGACCGGTTTTCCCGGTAATCCGTATTTGTT (site TCATGGTCTAA)” the “recombinant UMI read abundance (log10)” value was 0.48. For “TTTGCGGCATGGACCGGTTTTCCCGGTAATCCGTATTTGTT (site TTTGCGGCTAA)”, the “recombinant UMI read abundance (log10)” value was 0.223. In the case of “TACGTGACATGGACCGGTTTTCCCGGTAATCCGTATTTGCT (site TACCTGACTAG)”, the “recombinant UMI read abundance (log10)” value is reported as 0.0236. With “CTGCTAACATGGACCGGTTTTCCCGGTAATCCGTATTTGCC (site CTGCTAACTGG)” the “recombinant UMI read abundance (log10)” value was 2.21. In the case of “GACCTCACATGGACCGGTTTTCCCGGTAATCCGTATTTGGG (site GACCTCACTCC)”, the “recombinant UMI read abundance (log10)” value is reported as 0.0144. In the case of “TCCCACACATGGACCGGTTTTCCCGGTAATCCGTATTTGTA (site TCCCACACTTA)”, the “recombinant UMI read abundance (log10)” value is reported as 0.42. For “AGCCTACCATGGACCGGTTTTCCCGGTAATCCGTATTTGTT (site AGCCTAACTAA)”, the “recombinant UMI read abundance (log10)” value was 0. For “GCGACAACATGGACCGGTTTTCCCGGTAATCCGTATTTGCT (site GCGATAACTAG)”, the “recombinant UMI read abundance (log10)” value was 0.37. With “TCAGAGACATGGACCGGTTTTCCCGGTAATCCGTATTTGGG (site TCAGAGACTCA)” the “recombinant UMI read abundance (log10)” value was 0.0103. With “AGTCCAACATGGACCGGTTTTCCCGGTAATCCGTATTTGTA (site GGTCCAACTTA)” the “recombinant UMI read abundance (log10)” value was 0.172. For “CCCTACACATGGACCGGTTTTCCCGGTAATCCGTATTTGCT (site CACTACACTAG)”, the “recombinant UMI read abundance (log10)” value was 0. In the case of “TGTTCCCCATGGACCGGTTTTCCCGGTAATCCGTATTTGTA (site TGTTCACCTTA)”, the “recombinant UMI read abundance (log10)” value is reported as 0.00592. In the case of “TCAGAGACATGGACCGGTTTTCCCGGTAATCCGTATTTGCT (site TCAGAGACTAG)”, the “recombinant UMI read abundance (log10)” value is reported as 2.38. For “CCTTAGCCATGGACCGGTTTTCCCGGTAATCCGTATTTGCC (site CCCTAGCCTGG)”, the “recombinant UMI read abundance (log10)” value was 0. With “ACTAGGACATGGACCGGTTTTCCCGGTAATCCGTATTTGAG (site ACTAGGACTCT)” the “recombinant UMI read abundance (log10)” value was 2.15. For “TGCTAGGCATGGACCGGTTTTCCCGGTAATCCGTATTTGGT (site AGCTAGGCTAC)”, the “recombinant UMI read abundance (log10)” value was 0.0183. For “TCCCACACATGGACCGGTTTTCCCGGTAATCCGTATTTGTA (site ACCCACACTTA)”, the “recombinant UMI read abundance (log10)” value was 0.0202.
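Further: IS621 bridge recombinase in Escherichia coli cells against a fixed T5 target plasmid.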
